Measured values from patent publication US20170081338A1, “SUBSTITUTED HETEROARYL COMPOUNDS AND METHODS OF USE” (Sunshine Lake Pharma Co., Ltd., priority 2015, published 2017).

Key:
Aurora-B (h) = molecular target: T1, Aurora-B (h) (Homo sapiens, UniProt Q96GD4); experiment: Aurora-B (h) kinase assay; assay type: biochemical
T1 construct: purchased Millipore UK Ltd (contract assay service)
Experimental: Kinase assays can be performed by measurement of incorporation of γ-^33P ATP into immobilized myelin basic protein (MBP). High binding white 384 well plates (Greiner) are coated with MBP (Sigma #M-1891) by incubation of 60 μL/well of 20 μg/mL MBP in Tris-buffered saline (TBS; 50 mM Tris pH 8.0, 138 mM NaCl, 2.7 mM KCl) for 24 h at 4° C. Plates are washed 3× with 100 μL TBS. Kinase reactions are carried out in a total volume of 34 μL in kinase buffer (according to the need to make, for example, 5 mM Hepes pH 7.6, 15 mM NaCl, 0.01% bovine gamma globulin (Sigma #1-5506), 10 mM MgCl2, 1 mM DTT, 0.02% TritonX-100). Compound dilutions are performed in DMSO and added to assay wells to a final DMSO concentration of 1%. Each data point is measured in duplicate, and at least two duplicate assays are performed for each individual compound determination. Enzyme is added to final concentrations of 10 nM or 20 nM, for example. A mixture of unlabeled ATP and γ-^33P ATP is added to start the reaction (2×10^6 cpm of γ-^33P ATP per well (3000 Ci/mmole) and 10 μM unlabeled ATP, typically. The reactions are carried out for 1 h at room temperature with shaking. Plates are washed 7× with TBS, followed by the addition of 50 µL/well scintillation fluid (Wallac). Plates are read using a Wallac Trilux counter. This is only one format of such assays; various other formats are possible, as known to one skilled in the art.
The above assay procedure can be used to determine the IC50 for inhibition and/or the inhibition constant, Ki. The IC50 is defined as the concentration of compound required to reduce the enzyme activity by 50% under the condition of the assay. The IC50 value is estimated by preparing a 10 point curve using a 1/2 log dilution series (for example, a typical curve may be prepared using the following compound concentrations: 3 μM, 1 μM, 0.3 μM, 0.1 μM, 0.03 μM, 0.01 μM, 0.003 μM, 0.001 μM, 0.0003 μM and 0 μM).
Aurora-B (h) is incubated with 8 mM MOPS pH 7.0, 0.2 mM EDTA, 30 μM AKRRRLSSLRA, 10 mM MgAcetate and [γ-^33PATP] (specific activity approx. 500 cpm/pmol, concentration as required). The reaction is initiated by the addition of the MgATP mix. After incubation for 40 minutes at room temperature, the reaction is stopped by the addition of a 3% phosphoric acid solution. 10 μL of the reaction is then spotted onto a P30 filtermat and washed three times for 5 minutes in 75 mM phosphoric acid and once in methanol prior to drying and scintillation counting.
The kinase assays described herein were performed at Millipore UK Ltd, Dundee Technology Park, Dundee DD2 1SW, UK.

[1] = Pharmacokinetics after intravenous and oral administration in rats; assay type: in vivo; conditions: for Clearance (CL) after iv dosing / AUC(0-t) / half-life / Vd: dose 1 mg/kg, iv dosing; for F: oral bioavailability; for AUC(0-t) / half-life / Vd: rat, plasma; for Vd: read-out: Vss
Method in brief: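 Compounds dosed IV at 0.5, 1 or 2 mg/kg and orally at 0.5, 1, 5 or 10 mg/kg in rats, as solution, suspension or capsule formulations. Serial blood sampled out to 24 h and plasma stored frozen. Plasma levels quantified by LC/MS/MS in ESI MRM mode.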

T1 sequence (Q96GD4 whole entry): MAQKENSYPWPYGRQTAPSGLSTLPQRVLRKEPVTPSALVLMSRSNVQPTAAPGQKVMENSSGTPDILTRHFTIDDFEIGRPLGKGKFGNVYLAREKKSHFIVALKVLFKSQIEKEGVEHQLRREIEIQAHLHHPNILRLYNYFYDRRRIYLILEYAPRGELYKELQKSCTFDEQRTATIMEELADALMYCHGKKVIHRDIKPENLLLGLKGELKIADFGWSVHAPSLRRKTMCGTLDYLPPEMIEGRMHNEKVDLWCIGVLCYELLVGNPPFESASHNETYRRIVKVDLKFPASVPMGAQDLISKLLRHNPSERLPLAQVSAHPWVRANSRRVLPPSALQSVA

Structure (SMILES)	IC50 (Aurora-B (h))	Clearance (CL) after iv dosing [1]	F [1]	AUC(0-t) [1]	half-life [1]	Vd [1]
Cn1cc(Nc2ncc(Cl)c(N[C@@H]3COC4C3OC[C@@H]4NS(=O)(=O)CC(F)(F)F)n2)cn1 (stereo partly drawn) [Ex. 27, N-((3S,6R)-6-((5-chloro-2-((1-methyl-1H-pyrazol-4-yl)amino)pyrimidin-4-yl)amino)hexahydrofuro[3,2-b]furan-3-yl)-2,2,2-trifluoroethanesulfonamide]	8 nM	1.73 L/h/kg	66.1%	581 ng·h/mL	62.4 min	0.85 L/kg
Cn1cc(Nc2ncc(Cl)c(N[C@@H]3COC4C3OC[C@@H]4NS(=O)(=O)CC3CC3)n2)cn1 (stereo partly drawn) [Ex. 25, N-((3S,6R)-6-((5-chloro-2-((1-methyl-1H-pyrazol-4-yl)amino)pyrimidin-4-yl)amino)hexahydrofuro[3,2-b]furan-3-yl)-1-cyclopropylmethanesulfonamide]	24 nM	1.82 L/h/kg	84.2%	547 ng·h/mL	18 min	0.83 L/kg
Cn1cc(Nc2ncc(Cl)c(N[C@@H]3COC4C3OC[C@@H]4NS(=O)(=O)CC(C)(C)C#N)n2)cn1 (stereo partly drawn) [Ex. 26, N-((3S,6R)-6-((5-chloro-2-((1-methyl-1H-pyrazol-4-yl)amino)pyrimidin-4-yl)amino)hexahydrofuro[3,2-b]furan-3-yl)-2-cyano-2-methylpropane-1-sulfonamide]	11 nM	2.27 L/h/kg	62.7%	442 ng·h/mL	35.4 min	0.75 L/kg
CC(C)CS(=O)(=O)N[C@H]1COC2C1OC[C@H]2Nc1nc(Nc2cnn(C)c2)ncc1Cl (stereo partly drawn) [Ex. 2, N-((3S,6R)-6-((5-chloro-2-((1-methyl-1H-pyrazol-4-yl)amino)pyrimidin-4-yl)amino)hexahydrofuro[3,2-b]furan-3-yl)-2-methylpropane-1-sulfonamide]	29 nM	1.10 L/h/kg	101.3%	908 ng·h/mL	69 min	0.63 L/kg
